In US6737383B1, “Herbicidal oxadiazolidines” (priority 1999, dated 2004):

Tests used:
duck salad = experiment: Test B flood test duck salad; assay type: in vivo, Heteranthera limosa
Outline: (§1)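 Plants were grown to the 2-leaf stage before treatment with test chemical, then held in a greenhouse for twelve to sixteen days. Injury was visually rated against untreated controls on a 0–10 scale, where 0 is no effect and 10 is complete control.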

morningglory = experiment: Test B pre/postemergence morningglory; assay type: in vivo, Ipomoea hederacea
Outline: (§2)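 Test chemicals in a non-phytotoxic solvent mixture with surfactant were sprayed preemergence onto planted seeds and postemergence onto plants 2 to 18 cm tall (1- to 4-leaf stage). After twelve to sixteen days in a greenhouse, injury was visually rated against untreated controls from 0 (no effect) to 10 (complete control).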

corn = experiment: Test B pre/postemergence corn; assay type: in vivo, Zea mays
Outline: as §2

rape = experiment: Test B pre/postemergence rape; assay type: in vivo, Brassica napus
Outline: as §2

smallflower flatsedge = experiment: Test B flood test smallflower flatsedge; assay type: in vivo, Cyperus difformis
Outline: as §1

crabgrass = experiment: Test B pre/postemergence crabgrass; assay type: in vivo, Digitaria sanguinalis
Outline: as §2

giant foxtail = experiment: Test B pre/postemergence giant foxtail; assay type: in vivo, Setaria faberii
Outline: as §2

wild oat = experiment: Test B pre/postemergence wild oat; assay type: in vivo, Avena fatua
Outline: as §2

velvetleaf = experiment: Test B pre/postemergence velvetleaf; assay type: in vivo, Abutilon theophrasti
Outline: as §2

purple nutsedge = experiment: Test B pre/postemergence purple nutsedge; assay type: in vivo, Cyperus rotundus
Outline: as §2

bedstraw = experiment: Test B pre/postemergence bedstraw; assay type: in vivo, Galium aparine
Outline: as §2

cocklebur = experiment: Test B pre/postemergence cocklebur; assay type: in vivo, Xanthium strumarium
Outline: as §2

soybean = experiment: Test B pre/postemergence soybean; assay type: in vivo, Glycine max
Outline: as §2

rice = experiment: Test B flood test rice; assay type: in vivo, Oryza sativa
Outline: as §1

pigweed = experiment: Test B pre/postemergence pigweed; assay type: in vivo, Amaranthus retroflexus
Outline: as §2

wheat = experiment: Test B pre/postemergence wheat; assay type: in vivo, Triticum aestivum
Outline: as §2

[1] = Postemergence (flood test species), Rate 125 g/ha, scale of 0 to 10 where 0 is no effect and 10 is complete control
[2] = Rate 62 g/ha, Postemergence section, flood test species, scale of 0 to 10 where 0 is no effect and 10 is complete control
[3] = Rate 250 g/ha, Postemergence (flood test), scale 0 to 10, 0 is no effect, 10 is complete control
[4] = Rate 500 g/ha, listed under Postemergence (flood test species), scale 0 to 10
[5] = Postemergence, Rate 125 g/ha, scale of 0 to 10 where 0 is no effect and 10 is complete control
[6] = Postemergence, Rate 1000 g/ha, scale 0 to 10 (0 no effect, 10 complete control)
[7] = Preemergence, Rate 62 g/ha, scale 0 to 10 (0 no effect, 10 complete control)
[8] = Preemergence, Rate 125 g/ha, 0 is no effect, 10 is complete control
[9] = Preemergence, Rate 250 g/ha, scale 0 to 10, 0 is no effect, 10 is complete control
[10] = Preemergence, Rate 500 g/ha, scale 0 to 10 (0 no effect, 10 complete control)
[11] = Rate 62 g/ha, Postemergence, scale of 0 to 10 where 0 is no effect and 10 is complete control
[12] = Rate 250 g/ha, Postemergence, scale 0 to 10, 0 is no effect, 10 is complete control
[13] = Rate 500 g/ha, Postemergence, scale 0 to 10
[14] = Rate 1000 g/ha, Preemergence, scale 0 to 10 (0 no effect, 10 complete control)

C=CCn1c(=O)on(C(=O)N(c2ccc(F)cc2F)C2CC2)c1=O [Compound 127]
Ducksalad plant response rating (duck salad; [1]): 0 | Ducksalad plant response rating (duck salad; [2]): 0 | Plant response rating, Ducksalad (duck salad; [3]): 0 | Ducksalad plant response rating (duck salad; [4]): 0 | Morningglory plant response rating (morningglory; [5]): 0 | Morningglory plant response rating (morningglory; [6]): 0 | Morningglory plant response rating (morningglory; [7]): 0 | Morningglory plant response rating (0 to 10 scale) (morningglory; [8]): 0 | Morningglory plant response rating (morningglory; [9]): 0 | Morningglory plant response rating (morningglory; [10]): 0 | Morningglory plant response rating (morningglory; [11]): 0 | Plant response rating, Morningglory (morningglory; [12]): 0 | Morningglory plant response rating (morningglory; [13]): 0 | Plant response rating, Morningglory (morningglory; [14]): 0 | Corn plant response rating (corn; [5]): 0 | Corn plant response rating (corn; [6]): 0 | Corn plant response rating (corn; [7]): 0 | Corn plant response rating (0 to 10 scale) (corn; [8]): 0 | Corn plant response rating (corn; [9]): 0 | Corn plant response rating (corn; [10]): 0 | Corn plant response rating (corn; [11]): 0 | Plant response rating, Corn (corn; [12]): 0 | Corn plant response rating (corn; [13]): 0 | Plant response rating, Corn (corn; [14]): 0 | Rape plant response rating (rape; [5]): 0 | Rape plant response rating (rape; [6]): 0 | Rape plant response rating (rape; [7]): 0 | Rape plant response rating (0 to 10 scale) (rape; [8]): 0 | Rape plant response rating (rape; [9]): 0 | Rape plant response rating (rape; [10]): 0 | Rape plant response rating (rape; [11]): 0 | Plant response rating, Rape (rape; [12]): 0 | Rape plant response rating (rape; [13]): 0 | Plant response rating, Rape (rape; [14]): 0 | S. Flatsedge plant response rating (smallflower flatsedge; [1]): 0 | S. Flatsedge plant response rating (smallflower flatsedge; [2]): 0 | Plant response rating, S. Flatsedge (smallflower flatsedge; [3]): 0 | S. Flatsedge plant response rating (smallflower flatsedge; [4]): 0 | Crabgrass plant response rating (crabgrass; [5]): 0 | Crabgrass plant response rating (crabgrass; [6]): 0 | Crabgrass plant response rating (crabgrass; [7]): 0 | Crabgrass plant response rating (0 to 10 scale) (crabgrass; [8]): 0 | Crabgrass plant response rating (crabgrass; [9]): 0 | Crabgrass plant response rating (crabgrass; [10]): 0 | Crabgrass plant response rating (crabgrass; [11]): 0 | Plant response rating, Crabgrass (crabgrass; [12]): 0 | Crabgrass plant response rating (crabgrass; [13]): 0 | Plant response rating, Crabgrass (crabgrass; [14]): 7 | Giant foxtail plant response rating (giant foxtail; [5]): 0 | Giant foxtail plant response rating (giant foxtail; [6]): 0 | Giant foxtail plant response rating (giant foxtail; [7]): 0 | Giant foxtail plant response rating (0 to 10 scale) (giant foxtail; [8]): 0 | Giant foxtail plant response rating (giant foxtail; [9]): 2 | Giant foxtail plant response rating (giant foxtail; [10]): 4 | Giant foxtail plant response rating (giant foxtail; [11]): 0 | Plant response rating, Giant foxtail (giant foxtail; [12]): 0 | Giant foxtail plant response rating (giant foxtail; [13]): 0 | Plant response rating, Giant foxtail (giant foxtail; [14]): 9 | Wild oats plant response rating (wild oat; [5]): 0 | Wild oats plant response rating (wild oat; [6]): 0 | Wild oats plant response rating (wild oat; [7]): 0 | Wild oats plant response rating (0 to 10 scale) (wild oat; [8]): 0 | Wild oats plant response rating (wild oat; [9]): 0 | Wild oats plant response rating (wild oat; [10]): 0 | Wild oats plant response rating (wild oat; [11]): 0 | Plant response rating, Wild oats (wild oat; [12]): 0 | Wild oats plant response rating (wild oat; [13]): 0 | Plant response rating, Wild oats (wild oat; [14]): 8 | Velvetleaf plant response rating (velvetleaf; [5]): 0 | Velvetleaf plant response rating (velvetleaf; [6]): 0 | Velvetleaf plant response rating (velvetleaf; [7]): 0 | Velvetleaf plant response rating (0 to 10 scale) (velvetleaf; [8]): 0 | Velvetleaf plant response rating (velvetleaf; [9]): 0 | Velvetleaf plant response rating (velvetleaf; [10]): 0 | Velvetleaf plant response rating (velvetleaf; [11]): 0 | Plant response rating, Velvetleaf (velvetleaf; [12]): 0 | Velvetleaf plant response rating (velvetleaf; [13]): 0 | Plant response rating, Velvetleaf (velvetleaf; [14]): 0 | Nutsedge plant response rating (purple nutsedge; [5]): 0 | Nutsedge plant response rating (purple nutsedge; [6]): 0 | Nutsedge plant response rating (purple nutsedge; [7]): 0 | Nutsedge plant response rating (0 to 10 scale) (purple nutsedge; [8]): 0 | Nutsedge plant response rating (purple nutsedge; [9]): 0 | Nutsedge plant response rating (purple nutsedge; [10]): 0 | Nutsedge plant response rating (purple nutsedge; [11]): 0 | Plant response rating, Nutsedge (purple nutsedge; [12]): 0 | Nutsedge plant response rating (purple nutsedge; [13]): 0 | Bedstraw plant response rating (bedstraw; Postemergence, Rate 62 g/ha, scale 0 to 10, 0 is no effect, 10 is complete control): 0 | Bedstraw plant response rating (bedstraw; [5]): 0 | Bedstraw plant response rating (bedstraw; [6]): 0 | Bedstraw plant response rating (bedstraw; [7]): 0 | Bedstraw plant response rating (0 to 10 scale) (bedstraw; [8]): 0 | Bedstraw plant response rating (bedstraw; [9]): 0 | Bedstraw plant response rating (bedstraw; [10]): 0 | Plant response rating, Bedstraw (bedstraw; [12]): 0 | Bedstraw plant response rating (bedstraw; Rate 500 g/ha, Postemergence, scale 0 to 10, 0 no effect, 10 complete control): 0 | Plant response rating, Bedstraw (bedstraw; [14]): 0 | Cocklebur plant response rating (cocklebur; [5]): 0 | Cocklebur plant response rating (cocklebur; [6]): 0 | Cocklebur plant response rating (cocklebur; [7]): 0 | Cocklebur plant response rating (0 to 10 scale) (cocklebur; [8]): 0 | Cocklebur plant response rating (cocklebur; [9]): 0 | Cocklebur plant response rating (cocklebur; [10]): 0 | Cocklebur plant response rating (cocklebur; [11]): 0 | Plant response rating, Cocklebur (cocklebur; [12]): 0 | Cocklebur plant response rating (cocklebur; [13]): 0 | Soybean plant response rating (soybean; [5]): 0 | Soybean plant response rating (soybean; [6]): 0 | Soybean plant response rating (soybean; [7]): 0 | Soybean plant response rating (0 to 10 scale) (soybean; [8]): 0 | Soybean plant response rating (soybean; [9]): 0 | Soybean plant response rating (soybean; [10]): 0 | Soybean plant response rating (soybean; [11]): 0 | Plant response rating, Soybean (soybean; [12]): 0 | Soybean plant response rating (soybean; [13]): 0 | Plant response rating, Soybean (soybean; [14]): 0 | Rice plant response rating (rice; [1]): 0 | Rice plant response rating (rice; [2]): 0 | Plant response rating, Rice (rice; [3]): 0 | Rice plant response rating (rice; [4]): 0 | Redroot pigweed plant response rating (pigweed; [5]): 0 | Redroot pigweed plant response rating (pigweed; [6]): 0 | Redroot pigweed plant response rating (pigweed; [7]): 0 | Redroot pigweed plant response rating (0 to 10 scale) (pigweed; [8]): 0 | Redroot pigweed plant response rating (pigweed; [9]): 3 | Redroot pigweed plant response rating (pigweed; [10]): 7 | Redroot pigweed plant response rating (pigweed; [11]): 0 | Plant response rating, Redroot pigweed (pigweed; [12]): 0 | Redroot pigweed plant response rating (pigweed; [13]): 0 | Plant response rating, Redroot pigweed (pigweed; [14]): 10 | Wheat plant response rating (wheat; [5]): 0 | Wheat plant response rating (wheat; [6]): 0 | Wheat plant response rating (wheat; [7]): 0 | Wheat plant response rating (0 to 10 scale) (wheat; [8]): 0 | Wheat plant response rating (wheat; [9]): 0 | Wheat plant response rating (wheat; [10]): 0 | Wheat plant response rating (wheat; [11]): 0 | Plant response rating, Wheat (wheat; [12]): 0 | Wheat plant response rating (wheat; [13]): 0 | Plant response rating, Wheat (wheat; [14]): 2
